Common to all, as to details: cellular proliferation, several runs
For experiment [1], the system named is PC9 cells (SM). Kind of experiment: PC-9 growth inhibition assay (cell proliferation), Method B. Type of experiment: cell-based, human. How it is done:
(§1) Cell Proliferation Assays—Method B
(§2) Test compounds were dissolved in DMSO at 30 mM.
(§3) The final concentration was 1,000 cells/well. Add medium only as low control. […] 5% CO2 incubator for 72 hours.
(§4) After 72 hours incubation, remove the plates from incubator and equilibrate at room temperature for 15 minutes. Incubate the CellTiter Glo reagents (Promega, G9243) at 37° C. before the experiment. The buffer was equilibrated to room temperature and used to dissolve the substrate. To determine the cell viability, add 40 μL of CellTiter-Glo reagent into each well to be detected (at 1:1 to culture medium). Then the place the plates at room temperature for 30 min followed by read on EnSpire (PerkinElmer).
(§5) For estimation of IC50, the luminescence readout are transformed to % Inhibition by applying the following equation: The IC50 was then
(§6) [formula] calculated by fitting in XLFit to a four parameters logistic curve.
PC-9 Growth Inhibition Assay (Cell Proliferation).
The inhibition assay of PC-9 cells was conducted in the same manner as described above for H1975 cells.

The test system of experiment [2] is A431 cells (WT). Kind of experiment: A431 inhibition assay (cell proliferation), Method B. The format is cell-based, human. How it is done: as §1
A431 Inhibition Assay, (Cell Proliferation).
The rest procedure was conducted in the same manner as described above for H1975 cells.

Experiment [3] relates to H1975 cells (DM). Kind of experiment: H1975 inhibition assay (cell proliferation), Method B. Type of experiment: cell-based. How it is done: as §1
H1975 Inhibition Assay (Cell Proliferation).
as §2, §3, §4, §5, §6

Where a name gives a salt, the structure may show the parent alone.

A word on the IC50: it is the midpoint of a concentration-inhibition curve. A high value points to lower potency. As to `C=CC(=O)Nc1cc(Nc2nccc(-n3nc(NC4CCOC4)c4ccccc43)n2)c(OC)cc1N(C)CCN(C)C` (stereo not drawn) [Example 65, N-(5-(4-(3-(Tetrahydrofuran-3-ylamino)-1H-indazol-1-yl)pyrimidin-2-ylamino)-2-(N-(2-(dimethylamino)ethyl)-N-methylamino)-4-methoxyphenyl) acrylamide], the half-maximal inhibitory concentration (IC50) worked out at 6.46 nM in experiment [1] (Homo sapiens, PC-9, 72 h); 121 nM in experiment [2] (Homo sapiens, A-431, 72 h); 4.21 nM in experiment [3] (Homo sapiens, NCI-H1975, 72 h).
For the compound `C=CC(=O)Nc1cc(Nc2ncc(Cl)c(-n3cc(C(C)=O)c4ccccc43)n2)c(OC)cc1N(C)CCN(C)C` [Example 73, N-(5-(4-(3-Acetyl-1H-indol-1-yl)-5-chloropyrimidin-2-ylamino)-2-((2-(dimethylamino)ethyl)(methyl)amino)-4-methoxyphenyl) acrylamide], the 50% inhibitory concentration (IC50) came to 3.28 nM in experiment [1] (Homo sapiens, PC-9, 72 h); 426 nM in experiment [2] (Homo sapiens, A-431, 72 h); 12.6 nM in experiment [3] (Homo sapiens, NCI-H1975, 72 h).
Turning to `C=CC(=O)Nc1cc(Nc2nccc(-n3nc(Nc4ccccn4)c4ccccc43)n2)c(OC)cc1N(C)CCN(C)C` [Example 58, N-(5-(4-(3-(Pyridin-2-ylamino)-1H-indazol-1-yl)pyrimidin-2-ylamino)-2-(N-(2-(dimethylamino)ethyl)-N-methylamino)-4-methoxyphenyl) acrylamide], the IC50 in experiment [1] (Homo sapiens, PC-9, 72 h) was found to be 1.5 nM; in experiment [2] (Homo sapiens, A-431, 72 h), 1.46 nM; in experiment [3] (Homo sapiens, NCI-H1975, 72 h), 2.36 nM.
On to `C=CC(=O)Nc1cc(Nc2nccc(-n3nc(N(C)C)c4ccccc43)n2)c(OC)nc1N(C)CCN(C)C` [Example 72, N-(5-((4-(3-(Dimethylamino)-1H-indazol-1-yl)pyrimidin-2-yl)amino)-2-((2-(dimethylamino)ethyl)(methyl)amino)-6-methoxypyridin-3-yl) acrylamide], for which the IC50 in experiment [1] (Homo sapiens, PC-9, 72 h) turned out to be 5.88 nM; in experiment [2] (Homo sapiens, A-431, 72 h), 912 nM; in experiment [3] (Homo sapiens, NCI-H1975, 72 h) it was 8.55 nM.
With `C=CC(=O)Nc1cc(Nc2nccc(-c3c[nH]c4c(C(C)(C)C)cccc34)n2)c(OC)cc1N(C)CCN(C)C` [Example 48, N-(5-(4-(7-t-Butyl-1H-indol-3-yl)pyrimidin-2-ylamino)-2-(N-(2-(dimethylamino)ethyl)-N-methylamino)-4-methoxyphenyl) acrylamide], the IC50 in experiment [1] (Homo sapiens, PC-9, 72 h) came to 4.01 nM; in experiment [2] (Homo sapiens, A-431, 72 h) it was 265 nM; in experiment [3] (Homo sapiens, NCI-H1975, 72 h), 3.48 nM.
In the same order, the values of `C=CC(=O)Nc1cc(Nc2ncc(Cl)c(-c3cc(C(N)=O)cc4c3ccn4C)n2)c(OC)cc1N(C)CCN(C)C` [Example 47, 4-(2-(5-Acrylamido-4-((2-(dimethylamino)ethyl)(methyl)amino)-2-methoxyphenylamino)-5-chloropyrimidin-4-yl)-1-methyl-1H-indole-6-carboxamide] are 12.3 nM, 404 nM and 8.79 nM.
Consider `C=CC(=O)Nc1cc(Nc2nccc(-n3nc(C(N)=O)c4c3CCC4)n2)c(OC)cc1N(C)CCN(C)C` [Example 29, 1-(2-((5-Acrylamido-4-((2-(dimethylamino)ethyl)(methyl)amino)-2-methoxyphenyl)amino)pyrimidin-4-yl) cyclopenta[c]pyrazole-3-carboxamide], for which the 50% inhibitory concentration (IC50) in experiment [1] (Homo sapiens, PC-9, 72 h) worked out at 23.7 nM; in experiment [2] (Homo sapiens, A-431, 72 h), 777 nM; in experiment [3] (Homo sapiens, NCI-H1975, 72 h) it was 5.24 nM.
On to `C=CC(=O)Nc1cc(Nc2nccc(-c3c[nH]c4c(=O)[nH]ccc34)n2)c(OC)cc1N(C)CCN(C)C` [Example 22, N-(2-((2-(Dimethylamino)ethyl)(methyl)amino)-4-methoxy-5-((4-(7-oxo-6,7-dihydro-1H-pyrrolo[2,3-c]pyridin-3-yl)pyrimidin-2-yl)amino)phenyl) acrylamide], for which the IC50 is 62.6 nM in experiment [1] (Homo sapiens, PC-9, 72 h); 52.4 nM in experiment [1] (72 h); 1690 nM in experiment [2] (Homo sapiens, A-431, 72 h); 1190 nM in experiment [2] (72 h); 137 nM in experiment [3] (Homo sapiens, NCI-H1975, 72 h); 92.7 nM in experiment [3] (72 h).
On to `C=CC(=O)Nc1cc(Nc2ncc(Cl)c(-n3nc(NC)c4ccccc43)n2)c(OC)cc1N(C)CCN(C)C` [Example 52, N-(5-(5-Chloro-4-(3-(methylamino)-1H-indazol-1-yl)pyrimidin-2-ylamino)-2-(N-(2-(dimethylamino)ethyl)-N-methylamino)-4-methoxyphenyl) acrylamide], for which the IC50 in experiment [1] (Homo sapiens, PC-9, 72 h) came to 17.2 nM; in experiment [2] (Homo sapiens, A-431, 72 h), 325 nM; in experiment [3] (Homo sapiens, NCI-H1975, 72 h) it was 4.06 nM.
For the compound `C=CC(=O)Nc1cc(Nc2nccc(-n3nc(N(C)C)c4ccccc43)n2)c(OC(C)C)nc1N(C)CCN(C)C` [Example 70, N-(5-((4-(3-(dimethylamino)-1H-indazol-1-yl)pyrimidin-2-yl)amino)-2-((2-(dimethylamino)ethyl)(methyl)amino)-6-isopropoxypyridin-3-yl) acrylamide], the IC50 in experiment [1] (Homo sapiens, PC-9, 72 h) was 2.27 nM; in experiment [2] (Homo sapiens, A-431, 72 h) it was 812 nM; in experiment [3] (Homo sapiens, NCI-H1975, 72 h) it was 9.11 nM.
As to `C=CC(=O)Nc1cc(Nc2nccc(-c3cc(C(N)=O)c4c(c3)c(Cl)cn4C)n2)c(OC)cc1N(C)CCN(C)C` [Example 32, 5-(2-((5-Acrylamido-4-((2-(dimethylamino)ethyl)(methyl)amino)-2-methoxyphenyl)amino)pyrimidin-4-yl)-3-chloro-1N-methyl-1H-indole-7-carboxamide hydrochloride], the concentration for half-maximal inhibition (IC50) came out at 8.52 nM in experiment [1] (Homo sapiens, PC-9, 72 h); 11.9 nM in experiment [1] (72 h, hydrochloride); 1080 nM in experiment [2] (Homo sapiens, A-431, 72 h); 784 nM in experiment [2] (72 h, hydrochloride); 3.92 nM in experiment [3] (Homo sapiens, NCI-H1975, 72 h); 3.2 nM in experiment [3] (72 h, hydrochloride).
`C=CC(=O)Nc1cc(Nc2nccc(-n3cc(-c4ccn[nH]4)c4ccccc43)n2)c(OC)cc1N(C)CCN(C)C` [Example 74, N-(5-((4-(3-(1H-Pyrazol-3-yl)-1H-indol-1-yl)pyrimidin-2-yl)amino)-2-((2-(dimethylamino)ethyl)(methyl)amino)-4-methoxyphenyl) acrylamide]: the half-maximal inhibitory concentration (IC50) turned out to be 5.74 nM in experiment [1] (Homo sapiens, PC-9, 72 h); 396 nM in experiment [2] (Homo sapiens, A-431, 72 h); 28 nM in experiment [3] (Homo sapiens, NCI-H1975, 72 h).
`C=CC(=O)Nc1cc(Nc2nccc(-c3cc(C)c[nH]c3=O)n2)c(OC)cc1N(C)CCN(C)C` [Example 37, N-(2-((2-(Dimethylamino)ethyl)(methyl)amino)-4-methoxy-5-((4-(5-methyl-2-oxo-1,2-dihydropyridin-3-yl)pyrimidin-2-yl)amino)phenyl) acrylamide]: the IC50 in experiment [1] (Homo sapiens, PC-9, 72 h) came to 22 nM; in experiment [2] (Homo sapiens, A-431, 72 h) it was 588 nM; in experiment [3] (Homo sapiens, NCI-H1975, 72 h), 21.9 nM.
`C=CC(=O)Nc1cc(Nc2nccc(-n3cc(-c4cn[nH]c4)c4ccccc43)n2)c(OC)cc1N(C)CCN(C)C` [Example 75, N-(5-((4-(3-(1H-Pyrazol-4-yl)-1H-indol-1-yl)pyrimidin-2-yl)amino)-2-((2-(dimethylamino)ethyl)(methyl)amino)-4-methoxyphenyl) acrylamide]: the concentration for half-maximal inhibition (IC50) was found to be 27.9 nM in experiment [1] (Homo sapiens, PC-9, 72 h); 439 nM in experiment [2] (Homo sapiens, A-431, 72 h); 89.5 nM in experiment [3] (Homo sapiens, NCI-H1975, 72 h).
As for `C=CC(=O)Nc1cc(Nc2nccc(-c3ccc(C(N)=O)c4[nH]ccc34)n2)c(OC)cc1N(C)CCN(C)C` [Example 64, 4-(2-(5-Acrylamido-4-((2-(dimethylamino)ethyl)(methyl)amino)-2-methoxyphenylamino)pyrimidin-4-yl)-1H-indole-7-carboxamide], the concentration for half-maximal inhibition (IC50) in experiment [1] (Homo sapiens, PC-9, 72 h) turned out to be 5.65 nM; in experiment [2] (Homo sapiens, A-431, 72 h), 426 nM; in experiment [3] (Homo sapiens, NCI-H1975, 72 h) it was 7.96 nM.
On to `C=CC(=O)Nc1cc(Nc2nccc(-n3cc(C(N)=O)c4ncccc43)n2)c(OC)cc1N(C)CCN(C)C` [Example 49, 1-(2-(5-Acrylamido-4-((2-(dimethylamino)ethyl)(methyl)amino)-2-methoxyphenylamino)pyrimidin-4-yl)-1H-pyrrolo[3,2-b]pyridine-3-carboxamide], for which the half-inhibitory concentration (IC50) in experiment [1] (Homo sapiens, PC-9, 72 h) was 0.61 nM; in experiment [2] (Homo sapiens, A-431, 72 h), 137 nM; in experiment [3] (Homo sapiens, NCI-H1975, 72 h), 1.84 nM.
`C=CC(=O)Nc1cc(Nc2ncc(Cl)c(-c3cnc(NC)c(C(C)=O)c3)n2)c(OC)cc1N(C)CCN(C)C` [Example 63]: the 50% inhibitory concentration (IC50) turned out to be 5.79 nM in experiment [1] (Homo sapiens, PC-9, 72 h); 528 nM in experiment [2] (Homo sapiens, A-431, 72 h); 3.03 nM in experiment [3] (Homo sapiens, NCI-H1975, 72 h).
In the same order, the values of `C=CC(=O)Nc1cc(Nc2nccc(-n3nc(NC(C)=O)c4ccccc43)n2)c(OC)cc1N(C)CCN(C)C` [Example 53, N-(5-(4-(3-Acetamido-1H-indazol-1-yl)pyrimidin-2-ylamino)-2-((2-(dimethylamino)ethyl)(methyl)amino)-4-methoxyphenyl) acrylamide] are 3.09 nM, 82.5 nM and 6.23 nM.
In the same order, the values of `C=CC(=O)Nc1cc(Nc2nccc(-n3cc(C(=O)NC)c4ncccc43)n2)c(OC)cc1N(C)CCN(C)C` [Example 51, N-Methyl 1-(2-(5-acrylamido-4-((2-(dimethylamino)ethyl)(methyl)amino)-2-methoxyphenylamino)pyrimidin-4-yl)-1H-pyrrolo[3,2-b]pyridine-3-carboxamide] are 1.51 nM, 239 nM and 3.01 nM.
In the case of `C=CC(=O)Nc1cc(Nc2nccc(-n3cc(S(=O)(=O)NC)c4ccccc43)n2)c(OC)cc1N(C)CCN(C)C` [Example 62], the IC50 was 0.94 nM in experiment [1] (Homo sapiens, PC-9, 72 h); 43.9 nM in experiment [2] (Homo sapiens, A-431, 72 h); 2.24 nM in experiment [3] (Homo sapiens, NCI-H1975, 72 h).
